Data on 15 compounds can be found in BindingDB's records for doi:10.1016/j.bmcl.2009.07.032 (Amgen, 2009).

Broadly, the IC50 is the midpoint of a concentration-inhibition curve.

Molecules are shown by their SMILES.

The first experiment in a line: Antagonist activity against human CXCR3 expressed in human PBMC assessed as inhibition of cell migration in response to ITAC in plasma.
Turning to `CCOc1ccc(-n2c([C@@H](C)N(Cc3cc(C)no3)C(=O)Cc3ccc(F)c(C(F)(F)F)c3)nc3ncccc3c2=O)cc1` [(R)-N-(1-(3-(4-ethoxyphenyl)-4-oxo-3,4-dihydropyrido[2,3-d]pyrimidin-2-yl)ethyl)-2-(4-fluoro-3-(trifluoromethyl)phenyl)-N-((3-methylisoxazol-5-yl)methyl)acetamide], the 50% inhibitory concentration (IC50) is 59 nM.

Regarding `CCOc1ccc(-n2c([C@@H](C)N(CCS(=O)(=O)CC)C(=O)Cc3ccc(F)c(C(F)(F)F)c3)nc3ncccc3c2=O)cc1` [(R)-N-(1-(3-(4-ethoxyphenyl)-4-oxo-3,4-dihydropyrido[2,3-d]pyrimidin-2-yl)ethyl)-N-(2-(ethylsulfonyl)ethyl)-2-(4-fluoro-3-(trifluoromethyl)phenyl)acetamide], the IC50 was 22 nM.

For `CCOc1ccc(-n2c([C@@H](C)N(Cc3cccnc3)C(=O)Cc3ccc(F)c(C(F)(F)F)c3)nc3cnccc3c2=O)cc1` [(R)-N-(1-(3-(4-ethoxyphenyl)-4-oxo-3,4-dihydropyrido[3,4-d]pyrimidin-2-yl)ethyl)-2-(4-fluoro-3-(trifluoromethyl)phenyl)-N-(pyridin-3-ylmethyl)acetamide], the IC50 turned out to be 23 nM.

For the compound `CCOc1ccc(-n2c([C@@H](C)N(C[C@H]3CCCN3C(C)C)C(=O)Cc3ccc(F)c(C(F)(F)F)c3)nc3ncccc3c2=O)cc1` [N-((R)-1-(3-(4-ethoxyphenyl)-4-oxo-3,4-dihydropyrido[2,3-d]pyrimidin-2-yl)ethyl)-2-(4-fluoro-3-(trifluoromethyl)phenyl)-N-(((R)-1-isopropylpyrrolidin-2-yl)methyl)acetamide], the half-maximal inhibitory concentration (IC50) worked out at 10 nM.

With `CCOc1ccc(-n2c([C@@H](C)N(Cc3ccc[n+]([O-])c3)C(=O)Cc3ccc(OC(F)(F)F)cc3)nc3ncccc3c2=O)cc1` [(R)-3-((N-(1-(3-(4-ethoxyphenyl)-4-oxo-3,4-dihydropyrido[2,3-d]pyrimidin-2-yl)ethyl)-2-(4-(trifluoromethoxy)phenyl)acetamido)methyl)pyridine 1-oxide], the IC50 was determined as 58 nM.

Turning to `CCOc1ccc(-n2c([C@@H](C)N(C(=O)Cc3ccc(F)c(C(F)(F)F)c3)C3CCN(C(C)=O)CC3)nc3ncccc3c2=O)cc1` [(R)-N-(1-acetylpiperidin-4-yl)-N-(1-(3-(4-ethoxyphenyl)-4-oxo-3,4-dihydropyrido[2,3-d]pyrimidin-2-yl)ethyl)-2-(4-fluoro-3-(trifluoromethyl)phenyl)acetamide], the IC50 was determined as 131 nM.

As to `CCOc1ccc(-n2c([C@@H](C)N(CC3CCN(C)CC3)C(=O)Cc3ccc(F)c(C(F)(F)F)c3)nc3ncccc3c2=O)cc1` [(R)-N-(1-(3-(4-ethoxyphenyl)-4-oxo-3,4-dihydropyrido[2,3-d]pyrimidin-2-yl)ethyl)-2-(4-fluoro-3-(trifluoromethyl)phenyl)-N-((1-methylpiperidin-4-yl)methyl)acetamide], the IC50 was determined as 20 nM.

Consider `CCOc1ccc(-n2c([C@@H](C)N(C[C@H]3CCCN3)C(=O)Cc3ccc(F)c(C(F)(F)F)c3)nc3ncccc3c2=O)cc1` [N-((R)-1-(3-(4-ethoxyphenyl)-4-oxo-3,4-dihydropyrido[2,3-d]pyrimidin-2-yl)ethyl)-2-(4-fluoro-3-(trifluoromethyl)phenyl)-N-((R)-pyrrolidin-2-ylmethyl)acetamide], for which the IC50 is 20 nM.

As to `CCOc1ccc(-n2c([C@@H](C)N(Cc3cccnc3)C(=O)Cc3ccc(F)c(C(F)(F)F)c3)nc3ncccc3c2=O)cc1` [(R)-N-(1-(3-(4-ethoxyphenyl)-4-oxo-3,4-dihydropyrido[2,3-d]pyrimidin-2-yl)ethyl)-2-(4-fluoro-3-(trifluoromethyl)phenyl)-N-(pyridin-3-ylmethyl)acetamide], the half-inhibitory concentration (IC50) stood at 20 nM.

Turning to `CCOc1ccc(-n2c([C@@H](C)N(C(=O)Cc3ccc(F)c(C(F)(F)F)c3)C3CCN(C(C)C)CC3)nc3ncccc3c2=O)cc1` [(R)-N-(1-(3-(4-ethoxyphenyl)-4-oxo-3,4-dihydropyrido[2,3-d]pyrimidin-2-yl)ethyl)-2-(4-fluoro-3-(trifluoromethyl)phenyl)-N-(1-isopropylpiperidin-4-yl)acetamide], the half-maximal inhibitory concentration (IC50) was 5 nM.

With `CCOc1ccc(-n2c([C@@H](C)N(C[C@@H]3CCCN3C(C)C)C(=O)Cc3ccc(F)c(C(F)(F)F)c3)nc3ncccc3c2=O)cc1` [N-((R)-1-(3-(4-ethoxyphenyl)-4-oxo-3,4-dihydropyrido[2,3-d]pyrimidin-2-yl)ethyl)-2-(4-fluoro-3-(trifluoromethyl)phenyl)-N-(((S)-1-isopropylpyrrolidin-2-yl)methyl)acetamide], the IC50 was 80 nM.

Turning to `CCOc1ccc(-n2c([C@@H](C)N(Cc3cccnc3)C(=O)Cn3cnc(C(F)(F)F)c3)nc3ccccc3c2=O)cc1` [(R)-N-(1-(3-(4-ethoxyphenyl)-4-oxo-3,4-dihydroquinazolin-2-yl)ethyl)-N-(pyridin-3-ylmethyl)-2-(4-(trifluoromethyl)-1H-imidazol-1-yl)acetamide], the half-inhibitory concentration (IC50) was found to be 450 nM.

In the case of `CCOc1ccc(-n2c([C@@H](C)N(Cc3cccnc3)C(=O)Cc3cc(C(F)(F)F)cc(C(F)(F)F)c3)nc3ccccc3c2=O)cc1` [(R)-2-(3,5-bis(trifluoromethyl)phenyl)-N-(1-(3-(4-ethoxyphenyl)-4-oxo-3,4-dihydroquinazolin-2-yl)ethyl)-N-(pyridin-3-ylmethyl)acetamide], the IC50 came out at 17 nM.

As to `CCS(=O)(=O)CCN(C(=O)Cc1ccc(F)c(C(F)(F)F)c1)[C@H](C)c1nc2ncccc2c(=O)n1-c1ccc(OCC(F)(F)F)cc1` [(R)-N-(2-(ethylsulfonyl)ethyl)-2-(4-fluoro-3-(trifluoromethyl)phenyl)-N-(1-(4-oxo-3-(4-(2,2,2-trifluoroethoxy)phenyl)-3,4-dihydropyrido[2,3-d]pyrimidin-2-yl)ethyl)acetamide], the IC50 worked out at 15 nM.

As to `CCOc1ccc(-n2c([C@@H](C)N(C(=O)Cc3ccc(F)c(C(F)(F)F)c3)C3CCOCC3)nc3ncccc3c2=O)cc1` [(R)-N-(1-(3-(4-ethoxyphenyl)-4-oxo-3,4-dihydropyrido[2,3-d]pyrimidin-2-yl)ethyl)-2-(4-fluoro-3-(trifluoromethyl)phenyl)-N-(tetrahydro-2H-pyran-4-yl)acetamide], the IC50 turned out to be 162 nM.

A short description of the next experiment: Antagonist activity against human CXCR3 expressed in human PBMC assessed as inhibition of cell migration in response to IP10 in buffer.
Turning to `CCS(=O)(=O)CCN(C(=O)Cc1ccc(F)c(C(F)(F)F)c1)[C@H](C)c1nc2ncccc2c(=O)n1-c1ccc(OCC(F)(F)F)cc1` [(R)-N-(2-(ethylsulfonyl)ethyl)-2-(4-fluoro-3-(trifluoromethyl)phenyl)-N-(1-(4-oxo-3-(4-(2,2,2-trifluoroethoxy)phenyl)-3,4-dihydropyrido[2,3-d]pyrimidin-2-yl)ethyl)acetamide], the IC50 was found to be 0.4 nM.

The next experiment can be described thus: Antagonist activity against human CXCR3 expressed in human PBMC assessed as inhibition of cell migration in response to MIG in buffer.
Consider `CCS(=O)(=O)CCN(C(=O)Cc1ccc(F)c(C(F)(F)F)c1)[C@H](C)c1nc2ncccc2c(=O)n1-c1ccc(OCC(F)(F)F)cc1` [(R)-N-(2-(ethylsulfonyl)ethyl)-2-(4-fluoro-3-(trifluoromethyl)phenyl)-N-(1-(4-oxo-3-(4-(2,2,2-trifluoroethoxy)phenyl)-3,4-dihydropyrido[2,3-d]pyrimidin-2-yl)ethyl)acetamide], for which the half-maximal inhibitory concentration (IC50) came out at 0.6 nM.

The nature of the next experiment: Antagonist activity against human CXCR3 expressed in human PBMC assessed as inhibition of cell migration in response to ITAC in RPMI buffer.
On to `CCS(=O)(=O)CCN(C(=O)Cc1ccc(F)c(C(F)(F)F)c1)[C@H](C)c1nc2ncccc2c(=O)n1-c1ccc(OCC(F)(F)F)cc1` [(R)-N-(2-(ethylsulfonyl)ethyl)-2-(4-fluoro-3-(trifluoromethyl)phenyl)-N-(1-(4-oxo-3-(4-(2,2,2-trifluoroethoxy)phenyl)-3,4-dihydropyrido[2,3-d]pyrimidin-2-yl)ethyl)acetamide], for which the IC50 was 0.8 nM.
